In the supplement of paper PMC10307832:

Columns and labels:
Experiment in all cases: relative viability (nuclei count vs DMSO), 5 days (fraction); higher = more cells survive
EMC-BAC-2 = system: EMC-BAC-2
Procedure, shortened: (§1)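 Each reported value is a median over duplicate plates. It expresses relative viability: treated-well nuclei count divided by vehicle-well nuclei count. Lung cancer cell lines in 1536-well plates were dosed by pin tool a day after seeding, alone with one drug or with a fixed anchor-drug dose plus five library-drug doses (not always all listed) in √10 steps, and nuclei were counted after 5 days.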

NCI-H1650 = system: NCI-H1650
Procedure, shortened: as §1

NCI-H1915 = system: NCI-H1915
Procedure, shortened: as §1

NCI-H2347 = system: NCI-H2347
Procedure, shortened: as §1

LCLC-97TM1 = system: LCLC-97TM1
Procedure, shortened: as §1

H3255 = system: H3255
Procedure, shortened: as §1

NCI-H2009 = system: NCI-H2009
Procedure, shortened: as §1

NCI-H1993 = system: NCI-H1993
Procedure, shortened: as §1

BEN = system: BEN
Procedure, shortened: as §1

NCI-H2342 = system: NCI-H2342
Procedure, shortened: as §1

NCI-H358 = system: NCI-H358
Procedure, shortened: as §1

NCI-H2023 = system: NCI-H2023
Procedure, shortened: as §1

NCI-H2085 = system: NCI-H2085
Procedure, shortened: as §1

NCI-H727 = system: NCI-H727
Procedure, shortened: as §1

SW 1573 = system: SW 1573
Procedure, shortened: as §1

HOP-62 = system: HOP-62
Procedure, shortened: as §1

NCI-H2126 = system: NCI-H2126
Procedure, shortened: as §1

NCI-H322M = system: NCI-H322M
Procedure, shortened: as §1

NCI-H661 = system: NCI-H661
Procedure, shortened: as §1

PC-14 = system: PC-14
Procedure, shortened: as §1

LXF-289 = system: LXF-289
Procedure, shortened: as §1

SK-LU-1 = system: SK-LU-1
Procedure, shortened: as §1

NCI-H647 = system: NCI-H647
Procedure, shortened: as §1

In the case of COc1cc(N2CCC(C(N)=O)CC2)ccc1Nc1nc(N)c(Cl)c(Nc2ccccc2S(=O)(=O)C(C)C)n1 [HG-5-88-01] + CC(=O)c1c(C)c2cnc(Nc3ccc(N4CCNCC4)cn3)nc2n(C2CCCC2)c1=O [Palbociclib] (partner 0.5 µM), the relative viability (EMC-BAC-2; first compound 0.04 µM) is reported as 0.516, the relative viability (EMC-BAC-2; first compound 0.1265 µM) is reported as 0.543 and the relative viability (EMC-BAC-2; first compound 0.4 µM) is reported as 0.48. The relative viability (EMC-BAC-2; first compound 1.265 µM) was 0.405, the relative viability (EMC-BAC-2; first compound 4 µM) was 0.438 and the relative viability (NCI-H1650; first compound 0.04 µM) was 0.342. It also gave a relative viability (NCI-H1650; first compound 0.1265 µM) of 0.391, a relative viability (NCI-H1650; first compound 0.4 µM) of 0.327 and a relative viability (NCI-H1650; first compound 1.265 µM) of 0.298. The relative viability (NCI-H1650; first compound 4 µM) was 0.223, the relative viability (NCI-H1915; first compound 0.04 µM) was 0.592 and the relative viability (NCI-H1915; first compound 0.1265 µM) was 0.559. For the same molecule, the relative viability (NCI-H1915; first compound 0.4 µM) was 0.588, the relative viability (NCI-H1915; first compound 1.265 µM) was 0.565 and the relative viability (NCI-H1915; first compound 4 µM) was 0.502. For the same molecule, the relative viability (NCI-H2347; first compound 0.04 µM) was 0.439, the relative viability (NCI-H2347; first compound 0.1265 µM) was 0.417 and the relative viability (NCI-H2347; first compound 0.4 µM) was 0.467. It also gave a relative viability (NCI-H2347; first compound 1.265 µM) of 0.431, a relative viability (NCI-H2347; first compound 4 µM) of 0.425 and a relative viability (LCLC-97TM1; first compound 0.04 µM) of 0.214. For the same molecule, the relative viability (LCLC-97TM1; first compound 0.1265 µM) was 0.198, the relative viability (LCLC-97TM1; first compound 0.4 µM) was 0.197 and the relative viability (LCLC-97TM1; first compound 1.265 µM) was 0.194. The relative viability (LCLC-97TM1; first compound 4 µM) was 0.118, the relative viability (H3255; first compound 0.04 µM) was 0.291 and the relative viability (H3255; first compound 0.1265 µM) was 0.312. It also gave a relative viability (H3255; first compound 0.4 µM) of 0.309, a relative viability (H3255; first compound 4 µM) of 0.277 and a relative viability (NCI-H2009; first compound 0.04 µM) of 0.187. The relative viability (NCI-H2009; first compound 0.1265 µM) was 0.281, the relative viability (NCI-H2009; first compound 0.4 µM) was 0.242 and the relative viability (NCI-H2009; first compound 1.265 µM) was 0.216. The relative viability (NCI-H2009; first compound 4 µM) was 0.224, the relative viability (NCI-H1993; first compound 0.04 µM) was 0.662 and the relative viability (NCI-H1993; first compound 0.1265 µM) was 0.69. It also gave a relative viability (NCI-H1993; first compound 0.4 µM) of 0.793, a relative viability (NCI-H1993; first compound 4 µM) of 0.564 and a relative viability (BEN; first compound 0.04 µM) of 0.451. The relative viability (BEN; first compound 0.1265 µM) was 0.461, the relative viability (BEN; first compound 0.4 µM) was 0.409 and the relative viability (BEN; first compound 1.265 µM) was 0.465. It also gave a relative viability (BEN; first compound 4 µM) of 0.411, a relative viability (NCI-H2342; first compound 0.04 µM) of 0.557 and a relative viability (NCI-H2342; first compound 0.1265 µM) of 0.54. The relative viability (NCI-H2342; first compound 0.4 µM) was 0.471, the relative viability (NCI-H2342; first compound 4 µM) was 0.539 and the relative viability (NCI-H358; first compound 0.04 µM) was 0.139. It also gave a relative viability (NCI-H358; first compound 0.1265 µM) of 0.131, a relative viability (NCI-H358; first compound 0.4 µM) of 0.118 and a relative viability (NCI-H358; first compound 1.265 µM) of 0.0962. The relative viability (NCI-H358; first compound 4 µM) was 0.0785, the relative viability (NCI-H2023; first compound 0.04 µM) was 0.343 and the relative viability (NCI-H2023; first compound 0.1265 µM) was 0.355. The relative viability (NCI-H2023; first compound 0.4 µM) was 0.287, the relative viability (NCI-H2023; first compound 1.265 µM) was 0.259 and the relative viability (NCI-H2023; first compound 4 µM) was 0.212. The relative viability (NCI-H2085; first compound 0.04 µM) was 0.474, the relative viability (NCI-H2085; first compound 0.1265 µM) was 0.485 and the relative viability (NCI-H2085; first compound 0.4 µM) was 0.458. For the same molecule, the relative viability (NCI-H2085; first compound 1.265 µM) was 0.465, the relative viability (NCI-H2085; first compound 4 µM) was 0.552 and the relative viability (NCI-H727; first compound 0.04 µM) was 0.677. For the same molecule, the relative viability (NCI-H727; first compound 0.1265 µM) was 0.629, the relative viability (NCI-H727; first compound 0.4 µM) was 0.66 and the relative viability (NCI-H727; first compound 4 µM) was 0.61. The relative viability (SW 1573; first compound 0.04 µM) was 0.412, the relative viability (SW 1573; first compound 0.1265 µM) was 0.369 and the relative viability (SW 1573; first compound 0.4 µM) was 0.337. It also gave a relative viability (SW 1573; first compound 1.265 µM) of 0.257, a relative viability (SW 1573; first compound 4 µM) of 0.277 and a relative viability (HOP-62; first compound 0.04 µM) of 0.428. The relative viability (HOP-62; first compound 0.1265 µM) was 0.54, the relative viability (HOP-62; first compound 0.4 µM) was 0.456 and the relative viability (HOP-62; first compound 1.265 µM) was 0.501. For the same molecule, the relative viability (HOP-62; first compound 4 µM) was 0.608, the relative viability (NCI-H2126; first compound 0.04 µM) was 0.363 and the relative viability (NCI-H2126; first compound 0.1265 µM) was 0.352. For the same molecule, the relative viability (NCI-H2126; first compound 0.4 µM) was 0.378, the relative viability (NCI-H2126; first compound 1.265 µM) was 0.332 and the relative viability (NCI-H2126; first compound 4 µM) was 0.372. It also gave a relative viability (NCI-H322M; first compound 0.04 µM) of 0.532, a relative viability (NCI-H322M; first compound 0.1265 µM) of 0.492 and a relative viability (NCI-H322M; first compound 0.4 µM) of 0.477. For the same molecule, the relative viability (NCI-H322M; first compound 1.265 µM) was 0.337, the relative viability (NCI-H322M; first compound 4 µM) was 0.443 and the relative viability (NCI-H661; first compound 0.04 µM) was 0.384. It also gave a relative viability (NCI-H661; first compound 0.1265 µM) of 0.417, a relative viability (NCI-H661; first compound 0.4 µM) of 0.416 and a relative viability (NCI-H661; first compound 1.265 µM) of 0.359. The relative viability (NCI-H661; first compound 4 µM) was 0.426, the relative viability (PC-14; first compound 0.04 µM) was 0.545 and the relative viability (PC-14; first compound 0.1265 µM) was 0.611. It also gave a relative viability (PC-14; first compound 0.4 µM) of 0.464, a relative viability (PC-14; first compound 1.265 µM) of 0.221 and a relative viability (PC-14; first compound 4 µM) of 0.0845. The relative viability (LXF-289; first compound 0.04 µM) was 0.583, the relative viability (LXF-289; first compound 0.1265 µM) was 0.628 and the relative viability (LXF-289; first compound 0.4 µM) was 0.572. For the same molecule, the relative viability (LXF-289; first compound 1.265 µM) was 0.59, the relative viability (LXF-289; first compound 4 µM) was 0.636 and the relative viability (SK-LU-1; first compound 0.04 µM) was 0.363. For the same molecule, the relative viability (SK-LU-1; first compound 0.1265 µM) was 0.422, the relative viability (SK-LU-1; first compound 0.4 µM) was 0.505 and the relative viability (SK-LU-1; first compound 1.265 µM) was 0.329. It also gave a relative viability (SK-LU-1; first compound 4 µM) of 0.332, a relative viability (NCI-H647; first compound 0.04 µM) of 0.388 and a relative viability (NCI-H647; first compound 0.1265 µM) of 0.423. For the same molecule, the relative viability (NCI-H647; first compound 1.265 µM) was 0.444 and the relative viability (NCI-H647; first compound 4 µM) was 0.494.
